Results: patent US4461902A, “Thiazolidine derivatives and production thereof” (Takeda Chemical Industries, Ltd., priority 1982, dated 1984)

Assays:
blood sugar = assay: Hypoglycemic activity in mice (blood sugar by the glucose oxidase method); type: in vivo, KKA^y mice (female, 10 weeks of age); details: KKA^y mice; 0.02% in powder diet CE2 for 4 days; activity of test compound 1 regarded as 100
Source text: KKA^y mice (female, 10 weeks of age, 5 mice/group) received ad libitum powder diet CE2 (CLEA JAPAN) containing 0.02% of the compounds indicated below in the table mixed therewith for 4 days. Water was available ad libitum throughout the period. Blood sample were taken from the orbital vein and assayed for blood sugar by the glucose oxidase method.

Toxicity (LD50) in mice = details: mouse, in vivo

Compound | Hypoglycemic activity (relative potency) (blood sugar) | LD50 (Toxicity (LD50) in mice)
CC1(COc2ccc(CC3SC(=O)NC3=O)cc2)CCCCC1=O (stereo not drawn) [Test compound 3, 5-[4-(1-methyl-2-oxocyclohexylmethoxy)-benzyl]thiazolidine-2,4-dione] | 179 | ≥ 5000 mg/kg
CC1(COc2ccc(CC3SC(=O)NC3=O)cc2)CCCC(=O)C1 (stereo not drawn) [5-[4-(1-methyl-3-oxocyclohexylmethoxy)benzyl]thiazolidine-2,4-dione] | – | ≥ 5000 mg/kg
C[C@@]1(COc2ccc(CC3SC(=O)NC3=O)cc2)CCC[C@@H](O)C1 (relative stereo) [Test compound 6, 5-[4-(t-3-hydroxy-1-methyl-r-1-cyclohexylmethoxy)benzyl]-thiazolidine-2,4-dione] | 369 | –
CC1(COc2ccc(CC3SC(=O)NC3=O)cc2)CCC(=O)CC1 (stereo not drawn) [Example 3, 5-[4-(1-methyl-4-oxocyclohexylmethoxy)benzyl]thiazolidine-2,4-dione] | – | ≥ 5000 mg/kg
C[C@@]1(COc2ccc(CC3SC(=O)NC3=O)cc2)CCC[C@H](O)C1 (relative stereo) [compound 7] | 125 | –
5-[4-(2-hydroxy-1-methylcyclohexylmethoxy)benzyl]thiazolidine-2,4-dione [Test compound 4] | 118 | –
CC1(COc2ccc(CC3SC(=O)NC3=O)cc2)CCCCC1O (stereo not drawn) [compound 4] | 114 | –
CC1(COc2ccc(CC3SC(=O)NC3=O)cc2)CCC(O)CC1 (stereo not drawn) [5-[4-(4-hydroxy-1-methylcyclohexylmethoxy)benzyl]thiazolidine-2,4-dione] | – | ≥ 5000 mg/kg
